According to patent US20050059720A1, “Medicinal compositions for the prevention or treatment of cardiac failure” (SANKYO COMPANY, LIMITED, priority 2000, published 2005):

Tested on: Ventricular Cells in the Area Adjacent to Infarction
Test: Suppression of hypertrophy of ventricular cells in the area adjacent to infarction (coronary artery ligation)
Type: in vivo, Wistar rats
Settings: rats, 4 weeks administration after coronary ligation; pravastatin 5 mg/kg/day, CS-866 2 mg/kg/day; normal 2,737, control 3,812

## CC[C@H](C)C(=O)O[C@H]1C[C@H](O)C=C2C=C[C@H](C)[C@H](CC[C@@H](O)C[C@@H](O)CC(=O)O)[C@H]21 [pravastatin, (+)-(3R,5R)-3,5-dihydroxy-7-[(1S,2S,6S,8S,8aR)-6-hydroxy-2-methyl-8-[(S)-2-methylbutyryloxy]-1,2,6,7,8,8a-hexahydro-1-naphthyl]heptanoic acid]
  Mass of cardiac muscle cells in adjacent area to the infarction: 3,053 μm^2
